Experimental data: US9776979B2, “EBI2 modulators” (Sanford-Burnham Medical Research Institute, priority 2013, dated 2017)

These substances were tested against EBI2 (Homo sapiens, UniProt P32249) (assay: Cell-based luminescent assay (EBI2 modulation)). Conditions: cell-based luminescence; 7a,25-OHC final assay concentration 80 nM; 60 minutes incubation; read-out: IC50.
Protocol: Cell-Based Luminescent Assay
To assess EBI2 modulation, the compounds described herein were assayed in the following cell-based luminescent assay:
1) Plated 600 cells/well in 4 uL of assay media into columns 1-48 of a 1536-well assay plate, using a liquid dispenser.
2) Centrifuged plates at 1000 rpm for 1 minute and covered with lids.
3) Incubated overnight at 37° C., 100% relative humidity, 5% CO2.
1) Centrifuged compound plates containing compounds described herein at 500 rpm for 1 minute.
2) Added compounds into assay plate col 5-48 to final concentration 4-5 uM. Added matching amount of DMSO to positive and negative control wells in columns 1-4.
3) Dispensed 2 ul/well of assay media to columns 1-2 for the positive control wells.
4) Added 2 ul/well of 400 nM 7a,25-OHC (final assay concentration=80 nM) in assay media to columns 3-48 for the negative control and test compound wells.
5) Centrifuged plates at 1000 rpm for 1 minute and re-lid plates.
6) Incubated plates at 37° C., 100% relative humidity, 5% CO2 for 60 minutes.
7) Following 60 minute incubation, delivered 2.5 uL of Detection Reagent solution to each assay plate (Columns 1-48) using a liquid handler.
8) Centrifuged plates at 2000 rpm for 2 minutes and re-lid plates.
9) Incubated plates for 60 minutes at 25 degrees in the dark.
10) Read plates using the Viewlux, Envision or other suitable plate reader using a luminescence detection.
The experimental values were normalized by the difference between values from neutral and stimulator control wells in each plate. Then normalized data was corrected to remove systematic plate patterns due to artifacts such as dispensing tip issues etc.

Sequence of EBI2 (P32249 whole entry): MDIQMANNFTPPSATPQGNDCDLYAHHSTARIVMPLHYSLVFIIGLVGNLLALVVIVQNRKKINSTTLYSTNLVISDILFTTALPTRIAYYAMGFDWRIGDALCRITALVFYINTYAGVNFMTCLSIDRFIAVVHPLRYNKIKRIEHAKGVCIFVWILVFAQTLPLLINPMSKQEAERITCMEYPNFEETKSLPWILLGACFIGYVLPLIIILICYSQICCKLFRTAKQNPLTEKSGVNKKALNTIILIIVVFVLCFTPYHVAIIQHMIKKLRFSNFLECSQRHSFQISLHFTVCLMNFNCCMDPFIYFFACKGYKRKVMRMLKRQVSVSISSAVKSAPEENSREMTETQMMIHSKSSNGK

Row | Substance | IC50
1 | 1-(4-{[4-fluoro-2-(trifluoromethyl)phenyl]carbonyl}piperazinyl)-3-[4-(trifluoromethyl)phenyl]prop-2-yn-1-one [Compound C325] | < 0.1 µM
2 | 1-(4-{[4-fluoro-2-(trifluoromethyl)phenyl]carbonyl}piperazinyl)-3-phenylprop-2-yn-1-one [Compound C321] | < 0.1 µM
3 | 1-(4-{[4-fluoro-2-(trifluoromethyl)phenyl]methyl}piperazinyl)-3-(4-methylphenyl)prop-2-yn-1-one [Compound C459] | 0.1 to 0.5 µM
4 | 1-(4-{[4-fluoro-2-(trifluoromethyl)phenyl]methyl}piperazinyl)-3-[4-(trifluoromethyl)phenyl]prop-2-yn-1-one [Compound C432] | 0.1 to 0.5 µM
5 | 1-[4-(diphenylmethyl)piperazinyl]-3-(4-bromo-2-fluorophenyl)prop-2-yn-1-one [Compound C107] | < 0.1 µM
6 | 1-[4-(diphenylmethyl)piperazinyl]-3-(4-bromophenyl)prop-2-yn-1-one [Compound C50] | < 0.1 µM
7 | 1-[4-(diphenylmethyl)piperazinyl]-3-[2-(trifluoromethyl)phenyl]prop-2-yn-1-one [Compound C443] | 0.1 to 0.5 µM
8 | 1-{4-[(4-bromophenyl)carbonyl]piperazinyl}-3-(4-chlorophenyl)prop-2-yn-1-one [Compound C19] | < 0.1 µM
9 | 1-{4-[(4-bromophenyl)methyl]piperazinyl}-3-(4-chlorophenyl)prop-2-yn-1-one [Compound C383] | < 0.1 µM
10 | 3-(2,3-dichlorophenyl)-1-[4-(diphenylmethyl)piperazinyl]prop-2-yn-1-one [Compound C25] | < 0.1 µM
11 | 3-(2,3-dichlorophenyl)-1-{4-[(4-chlorophenyl)carbonyl]piperazinyl}prop-2-yn-1-one [Compound C30] | < 0.1 µM
12 | 3-(3,4-dichlorophenyl)-1-[4-(diphenylmethyl)piperazinyl]prop-2-yn-1-one [Compound C77] | < 0.1 µM
13 | 3-(3,5-difluorophenyl)-1-(4-{[4-(trifluoromethyl)phenyl]carbonyl}piperazinyl)prop-2-yn-1-one [Compound C398] | 0.1 to 0.5 µM
14 | 3-(3,5-difluorophenyl)-1-(4-{[4-fluoro-2-(trifluoromethyl)phenyl]methyl}piperazinyl)prop-2-yn-1-one [Compound C422] | 0.1 to 0.5 µM
15 | 3-(3,5-difluorophenyl)-1-[4-(diphenylmethyl)piperazinyl]prop-2-yn-1-one [Compound C419] | 0.1 to 0.5 µM
16 | 3-(4-bromophenyl)-1-{4-[(4-bromophenyl)methyl]piperazinyl}prop-2-yn-1-one [Compound C364] | < 0.1 µM
17 | 3-(4-methylphenyl)-1-(4-{[4-(trifluoromethyl)phenyl]methyl}piperazinyl)prop-2-yn-1-one [Compound C346] | < 0.1 µM
18 | 3-[4-(trifluoromethyl)phenyl]-1-(4-{[4-(trifluoromethyl)phenyl]methyl}piperazinyl)prop-2-yn-1-one [Compound C411] | 0.1 to 0.5 µM
19 | 4-(diphenylmethyl)piperazinyl pyrrolo[2,3-c]pyridin-2-yl ketone [Compound C431] | 0.1 to 0.5 µM
20 | 4-[(2,4-difluorophenyl)methyl]piperazinyl 5-(trifluoromethyl)indol-2-yl ketone [Compound C412] | 0.1 to 0.5 µM

Now from value to substance:

Row | IC50 | Substance
21 | < 0.1 µM | 1-{4-[(4-fluorophenyl)carbonyl]piperazinyl}-3-[2-(trifluoromethyl)phenyl]prop-2-yn-1-one [Compound C393]
22 | 0.1 to 0.5 µM | 1-{4-[(4-fluorophenyl)methyl]piperazinyl}-3-[2-(trifluoromethyl)phenyl]prop-2-yn-1-one [Compound C438]
23 | < 0.1 µM | 1-{4-[(4-methoxyphenyl)carbonyl]piperazinyl}-3-[2-(trifluoromethyl)phenyl]prop-2-yn-1-one [Compound C373]
24 | < 0.1 µM | 1-{4-[(4-methoxyphenyl)methyl]piperazinyl}-3-[4-(trifluoromethyl)phenyl]prop-2-yn-1-one [Compound C352]
25 | < 0.1 µM | 3-(2,3-dichlorophenyl)-1-{4-[(4-chlorophenyl)methyl]piperazinyl}prop-2-yn-1-one [Compound C275]
26 | 0.1 to 0.5 µM | 3-(2,4-difluorophenyl)-1-{4-[(4-fluorophenyl)carbonyl]piperazinyl}prop-2-yn-1-one [Compound C424]
27 | < 0.1 µM | 3-(3,4-dichlorophenyl)-1-{4-[(4-chlorophenyl)carbonyl]piperazinyl}prop-2-yn-1-one [Compound C51]
28 | 0.1 to 0.5 µM | 3-(3,4-dichlorophenyl)-1-{4-[(4-chlorophenyl)methyl]piperazinyl}prop-2-yn-1-one [Compound C291]
29 | < 0.1 µM | 3-(3,4-dichlorophenyl)-1-{4-[(4-fluorophenyl)carbonyl]piperazinyl}prop-2-yn-1-one [Compound C93]
30 | 0.1 to 0.5 µM | 3-(3,5-difluorophenyl)-1-{4-[(4-fluorophenyl)carbonyl]piperazinyl}prop-2-yn-1-one [Compound C410]
31 | 0.1 to 0.5 µM | 3-(3,5-difluorophenyl)-1-{4-[(4-methoxyphenyl)carbonyl]piperazinyl}prop-2-yn-1-one [Compound C467]
32 | < 0.1 µM | 3-(4-bromophenyl)-1-{4-[(4-chlorophenyl)carbonyl]piperazinyl}prop-2-yn-1-one [Compound C55]
33 | < 0.1 µM | 3-(4-bromophenyl)-1-{4-[(4-chlorophenyl)methyl]piperazinyl}prop-2-yn-1-one [Compound C342]
34 | 0.1 to 0.5 µM | 3-(4-fluorophenyl)-1-{4-[(4-fluorophenyl)methyl]piperazinyl}prop-2-yn-1-one [Compound C446]
35 | < 0.1 µM | 4,6-dichloroindol-2-yl 4-(diphenylmethyl)piperazinyl ketone [Compound C250]
36 | 0.1 to 0.5 µM | 4-(diphenylmethyl)piperazinyl 1-methylindol-5-yl ketone [Compound C433]
37 | < 0.1 µM | 4-(diphenylmethyl)piperazinyl 2-naphthyl ketone [Compound C101]
38 | < 0.1 µM | 4-(diphenylmethyl)piperazinyl 5-bromobenzo[b]thiophen-2-yl ketone [Compound C207]
39 | < 0.1 µM | 4-(diphenylmethyl)piperazinyl 5-bromoindol-2-yl ketone [Compound C43]
40 | < 0.1 µM | 4-(diphenylmethyl)piperazinyl 5-chlorobenzo[b]thiophen-2-yl ketone [Compound C36]
41 | < 0.1 µM | 4-(diphenylmethyl)piperazinyl 5-hydroxyindol-2-yl ketone [Compound C348]
42 | < 0.1 µM | 4-(diphenylmethyl)piperazinyl 6-bromoindol-2-yl ketone [Compound C108]
43 | < 0.1 µM | 4-(diphenylmethyl)piperazinyl 6-fluoro(3-quinolyl) ketone [Compound C227]
44 | < 0.1 µM | 4-(diphenylmethyl)piperazinyl 8-fluoro(3-quinolyl) ketone [Compound C386]
45 | < 0.1 µM | 4-(diphenylmethyl)piperazinyl indol-6-yl ketone [Compound C370]
